Measurements taken from US11400101B2, “Treatment of allergic rhinitis using a combination of mometasone and olopatadine” (GLENMARK SPECIALTY S.A., priority 2013, dated 2022).
Marks after values point to notes of the source that are not given here.

Assays:
[1] = Pharmacokinetics of mometasone furoate, single-dose three-period cross-over study, Example 13; format: in vivo, human; details: single dose nasal spray
Protocol: The pharmacokinetics of mometasone furoate in a fixed dose combination of mometasone furoate and olopatadine hydrochloride nasal spray was evaluated in a clinical trial. The clinical trial was a randomized, single-center, single-dose, open-label, three-period, six-sequence, cross-over study to evaluate three treatments administered by nasal spray. The three treatments included a combination of mometasone furoate and olopatadine hydrochloride nasal spray, mometasone furoate nasal spray and Nasonex® nasal spray. […] The study consisted of a screening visit, 3 single-dose treatment periods with washout periods of 7 to 14 days between dosing in each treatment period, an early withdrawal visit if applicable, and a follow-up telephone call (or visit) 1 to 7 days after completing the third treatment period. A total of 30 subjects were randomized to 1 of 6 treatment sequences and received at least 1 dose of study drug. All 30 subjects were included in the safety analysis set and the pharmacokinetic subset. All but 2 subjects completed the study per protocol.

sneezing response = assay: Sneezing response in ovalbumin induced rhinitis model (whole body plethysmography); format: in vivo, guinea pigs; details: for Inhibition of sneezing response (in words) / Number of Sneeze (0-50 min): MF 10 μg; for Percent inhibition of sneeze: MF 10 μg per animal, vs ovalbumin control; for Number of Sneeze (0-50 min): intranasal, ovalbumin challenged
Protocol: Male Dunkin Hartley guinea pigs were actively sensitized with a subcutaneous injection of 1.5 mg of ovalbumin and 20 mg of aluminum hydroxide gel on days 0 and 7. Guinea pigs were sensitized intranasally with 2% ovalbumin from days 14-17. On day 28, the animals were challenged with 6% ovalbumin intranasally. Mometasone furoate 10 μg was given intranasally 24 hours and 1 hour prior to the final ovalbumin challenge. Olopatadine hydrochloride was given intranasally 1 hour before the final ovalbumin challenge. The dosing volume was 40 μl/animal. The saline control group and ovalbumin control group received vehicle (40 μl, 0.1% Tween 80 in distilled water). Sneezing response was determined by using whole body plethysmography (Buxco Research Systems, USA) for 50 minutes after final saline or ovalbumin challenge. The procedure in Example 1 was repeated except 120 μg of olopatadine hydrochloride (based on the equivalent weight of olopatadine free base) was used. The animal groups in Table 3 below were used during this experiment. Compound administration was performed as in Example 1, except the dosing volume was 60 μl/animal. The saline control group and ovalbumin control group received vehicle (60 μl, 0.1% Tween 80 in distilled water). In vivo evaluations were performed as in Example 1.

[2] = tested on: total cells and eosinophils in nasal lavage; assay: Nasal lavage total cell count and eosinophils in ovalbumin induced rhinitis model; format: in vivo, guinea pigs; details: for Inhibition of total cell and eosinophils in nasal lavage (in words): MF 10 μg; for % inhibition of eosinophils / Percent inhibition of total cell count / Eosinophils × 10^5/ml nasal lavage / Total cell count × 10^5/ml nasal lavage: MF 10 μg per animal
Protocol: Male Dunkin Hartley guinea pigs were actively sensitized with a subcutaneous injection of 1.5 mg of ovalbumin and 20 mg of aluminum hydroxide gel on days 0 and 7. Guinea pigs were sensitized intranasally with 2% ovalbumin from days 14-17. On day 28, the animals were challenged with 6% ovalbumin intranasally. Mometasone furoate 10 μg was given intranasally 24 hours and 1 hour prior to the final ovalbumin challenge. Olopatadine hydrochloride was given intranasally 1 hour before the final ovalbumin challenge. The dosing volume was 40 μl/animal. The saline control group and ovalbumin control group received vehicle (40 μl, 0.1% Tween 80 in distilled water). Nasal lavage was performed at 4 hours after challenge of animals with saline or ovalbumin on day 28. Animals were anesthetized with an overdose of urethane, the trachea was exposed and nasal lavage was performed using 2 mL pre-warmed normal saline. The collected nasal lavage was taken for total cell count using a hemocytometer. The nasal lavage was centrifuged, and the cell pellet resuspended in 15 μL guinea pig serum and used for preparation of smears. Slides were stained with Leishman's stain and a differential cell count of 100 cells based on standard morphology was performed manually. The total number of eosinophils in each nasal lavage sample was calculated using the formula: [formula] Percent inhibition of eosinophils was calculated using the following formula: The procedure in Example 1 was repeated except 120 μg of olopatadine hydrochloride (based on the equivalent weight of olopatadine free base) was used. The animal groups in Table 3 below were used during this experiment. Compound administration was performed as in Example 1, except the dosing volume was 60 μl/animal. The saline control group and ovalbumin control group received vehicle (60 μl, 0.1% Tween 80 in distilled water). In vivo evaluations were performed as in Example 1.

[3] = Plasma pharmacokinetics of TP-1 in the Phase III study, day 1 and day 8 (steady state); format: in vivo, human; details: patients receiving TP-1 twice daily
Text: This study consisted of four visits to the study site. After the initial screening visit (Visit 1), subjects who met all study selection criteria were required to undergo a single-blind placebo run-in period for 7-10 days. Following the completion of the run-in period, eligible subjects meeting the randomization criteria were enrolled and randomized to one of the four treatment arms. Subjects were dispensed medication as per the randomization list. Randomized subjects were required to undergo a 2 week (14 days) treatment period as per the protocol to assess the efficacy and safety of the assigned treatment. Subjects were instructed to record the symptom scores in a symptom assessment diary. They were also scheduled to have at least two blood samples for PK assessment during the treatment period.
• Change from baseline in average AM and PM subject-reported 12-hour rTNSS (reflective TNSS) over the 14-day treatment period. Secondary Endpoints • Change from baseline in average AM and PM subject-reported 12-hour iTNSS (instantaneous TNSS) over the 14 day treatment period. • Change from baseline in average AM and PM subject-reported 12-hour rTOSS (reflective TOSS) over the 14-day treatment period. • Onset of action for each treatment are assessed by comparing the change from baseline in post-treatment iTNSS between each active treatment and placebo at defined time points (prior to first dose (pre-dose), 15 min, 30 min, 45 min, 60 min, 90 min, 120 min, 150 min, 180 min, 210 min, and 240 min) after the first study treatment for 4 hours. • Change from baseline in the overall Rhinoconjunctivitis Quality of Life questionnaire (RQLQ)—Standardized Activities (RQLQ(S)) score on Day 15 (Visit 4) for the Full Analysis Set (FAS). Pharmacokinetic Endpoints • Plasma PK: Maximum plasma concentration (Cmax), time to attain Cmax (Tmax), and area under the plasma concentration-time curve over the dosing interval (AUCtau) will be estimated for mometasone furoate and olopatadine on Day 1 and Day 8 based on the pharmacokinetic analysis set (PKAS). Tertiary Efficacy Endpoints Nasal Symptoms: • Change from baseline in AM subject-reported rTNSS over the 14-day treatment period. • Change from baseline in AM subject-reported iTNSS over the 14-day treatment period. • Change from baseline in PM subject-reported rTNSS over the 14-day treatment period. • Change from baseline in PM subject-reported iTNSS over the 14-day treatment period. • Change from baseline in subject-reported reflective individual nasal symptoms over the 14-day treatment period (AM, PM and average of AM and PM). • Change from baseline in subject-reported instantaneous individual nasal symptoms over the 14-day treatment period (AM, PM and average of AM and PM). • Change from baseline in average AM and PM subject-reported rTNSS and iTNSS for each day. • Change from baseline in AM subject-reported rTNSS and iTNSS for each day. • Change from baseline in PM subject-reported rTNSS and iTNSS for each day. […]

[4] = Example 1, OH 50 μg, 4 hours after challenge

Compound: C[C@@H]1C[C@H]2[C@@H]3CCC4=CC(=O)C=C[C@]4(C)[C@@]3(Cl)[C@@H](O)C[C@]2(C)[C@@]1(OC(=O)c1ccco1)C(=O)CCl [Mometasone Furoate, Mometasone furoate]
- Last time point until which quantifiable concentrations were observed [1]: 72 h
- Inhibition of sneezing response (in words) (sneezing response; Example 1, OH 50 μg): not effective
- Percent inhibition of sneeze (sneezing response; Example 1, OH 50 μg): 15%
- Number of Sneeze (0-50 min) (sneezing response; Example 1, per animal: OH 50 μg, combination 50 (OH) & 10 (MF)): 18.83
- Inhibition of sneezing response (in words) (sneezing response; Example 2, OH 120 μg): not effective
- Percent inhibition of sneeze (sneezing response; Example 2, OH 120 μg): −5%
- Number of Sneeze (0-50 min) (sneezing response; Example 2, per animal: OH 120 μg, combination 120 (OH) & 10 (MF)): 37.33
- Inhibition of total cell and eosinophils in nasal lavage (in words) ([2]; Example 1, OH 50 μg): significant inhibition
- % inhibition of eosinophils ([2]; Example 1, OH 50 μg): 46%
- Percent inhibition of total cell count ([2]; Example 1, OH 50 μg): 46%
- Eosinophils × 10^5/ml nasal lavage [2, 4]: 2.00* × 10^5/ml
- Total cell count × 10^5/ml nasal lavage [2, 4]: 3.90* × 10^5/ml
- Inhibition of total cell and eosinophils in nasal lavage (in words) ([2]; Example 2, OH 120 μg): significant inhibition
- % inhibition of eosinophils ([2]; Example 2, OH 120 μg): 20%
- Eosinophils × 10^5/ml nasal lavage ([2]; Example 2, OH 120 μg): 2.69 × 10^5/ml
- Percent inhibition of total cell count ([2]; Example 2, OH 120 μg): 30%
- Total cell count × 10^5/ml nasal lavage ([2]; Example 2, OH 120 μg): 4.96 × 10^5/ml
- Mometasone furoate AUCtau, Geo Mean ([3]; Day 1): 0.02616 ng·h/mL
- Mometasone furoate AUCtau, Mean ([3]; Day 1): 0.02856 ng·h/mL
- Mometasone furoate AUCtau, Min-Max ([3]; Day 1): 0.01211 to 0.07254 ng·h/mL
- Mometasone furoate Cmax, Geo Mean ([3]; Day 1): 6.27 pg/mL
- Mometasone furoate Cmax, Mean ([3]; Day 1): 6.78 pg/mL
- Mometasone furoate Cmax, Min-Max ([3]; Day 1): 2.67 to 12.80 pg/mL
- Mometasone furoate Tmax, Median ([3]; Day 1): 1.00 h
- Mometasone furoate AUCtau, Geo Mean ([3]; Day 8): 0.05267 ng·h/mL
- Mometasone furoate AUCtau, Mean ([3]; Day 8): 0.0584 ng·h/mL
- Mometasone furoate AUCtau, Min-Max ([3]; Day 8): 0.02568 to 0.12405 ng·h/mL
- Mometasone furoate Cmax, Geo Mean ([3]; Day 8): 9.17 pg/mL
- Mometasone furoate Cmax, Mean ([3]; Day 8): 9.92 pg/mL
- Mometasone furoate Cmax, Min-Max ([3]; Day 8): 3.58 to 16.10 pg/mL
- Mometasone furoate Tmax, Median ([3]; Day 8): 1.00 h
